The text below walks through data of US20080207521A1, “PEPTIDE LIGAND TO IMPAIR CANCER CELL MIGRATION” (priority 2005, published 2008).

The subject of the assay is filamentous actin (F-actin). Briefly: F-actin content of MDA-MB-468 cells (AlexaFluor 488 phalloidin fluorescent microscopy). The class given is cell-based, human. The settings on record: peptide 100 μM; 18 h; compared to untreated cells. The procedure:
MDA-MB-468 cells were detached from the tissue culture dishes by incubation with Versene for 10 min at 37° C., washed, re-suspended as single cells in serum-free DMEM medium supplemented with 0.5% BSA with or without peptide 175 (100 μM), and plated on a cover glass, pre-coated with 10 µg/ml collagen-I, in a cell culture dish. These experiments were terminated after 18 h by fixing the cells with 4% paraformaldehyde for 10 min at 4° C.
The cells were then permeabilized by incubation with 0.5% Trition X-100 for 5 min and blocked by incubation with a 3% BSA solution supplemented with 0.3% Triton X-100 for 45 min. The staining of the cells was performed in the dark by incubation for 40 min with AlexaFluor® 488 phalloidin (Molecular Probes, Eugene, Oreg.) at a dilution of 1:500 and in the presence of 1% BSA. Thereafter the cells were extensively washed and finally mounted with Dako Cytomation fluorescent mounting medium. The samples were examined and photographed in a Nikon Eclipse 800 microscope using a 60× oil immersion objective.
Peptide-induced effects on MDA-MB-468 tumour cell migration and their content of F-actin. (A) The cells were allowed to migrate for 18 h in the absence or presence of the indicated peptides (100 μM) The data in panel A are expressed as means±SEM of 8 separate experiments, each performed in triplicate. * p<0.05. […]

With “NKTSEGMDGCEL (Human) [peptide 175, Wnt-5a aa 311-322]”, the “cellular content of filamentous actin (F-actin)” value is “significantly higher cellular content of filamentous actin”.
